The values below come from ChEMBL document CHEMBL5634160, “Synthesis, biological evaluation and action mechanism of 7H-[1,2,4] triazolo [3,4-b] [1,3,4] thiadiazine-phenylhydrazone derivatives as α-glucosidase inhibitors” (Eur J Med Chem, 2023).

The structures appear in SMILES notation.

The experiment concerns the target Alpha-glucosidase (Saccharomyces cerevisiae S288c, UniProt P53341+P38158+P07265). As to the kind of experiment: Inhibition of Saccharomyces cerevisiae alpha-glucosidase using nitrophenol-alpha-D-glucopyranoside (pNPG) as substrate incubated for 15 mins. Type of experiment: protein assay.

On to `Oc1ccc(/C=N/Nc2nnc3n2N=C(c2ccccc2)CS3)cc1`, for which the IC50 was determined as 213.5 µM. `COc1ccccc1/C=N/Nc1nnc2n1N=C(c1ccccc1)CS2` came in with an IC50 of 114.9 µM. Compound `Clc1ccccc1/C=N/Nc1nnc2n1N=C(c1ccccc1)CS2` displayed an IC50 of 41.83 µM.

For the compound `Oc1ccc(/C=N/Nc2nnc3n2N=C(c2ccccc2)CS3)c(O)c1`, the IC50 was found to be 32.96 µM. This IC50 and that of the compound before are within 1.5-fold of each other.
